Results on 2 sequences are retold here after publication PMC3436870, “The Conserved Residue Arg46 in the N-Terminal Heptad Repeat Domain of HIV-1 gp41 Is Critical for Viral Fusion and Entry” (PLoS ONE, 2012).

Experiment [1] concerns HIV-1 IIIB. As to the kind of experiment: Inhibition of HIV-1IIIB infection of MT-2 cells, p24 ELISA. As to conditions: HIV-1 IIIB at 100 TCID50, peptide overnight, p24 antigen ELISA on fourth day post-infection. Format: cell-based. On the procedure: The inhibitory activity of the NHR- and CHR-peptides on HIV-1IIIB infection was determined as previously described. In brief, 1×10^4 MT-2 cells were infected with HIV-1 IIIB at 100 TCID50 (50% tissue culture infective dose) in 200 µl culture medium in the presence or absence of the test peptide overnight. Then the culture supernatants were removed, and fresh media were added. On the fourth day post-infection, 100 µl of culture supernatants were collected from each well, mixed with equal volumes of 5% Triton X-100 and assayed for p24 antigen by an in-house ELISA as described before.
A general note: An ELISA detects its analyte on a solid surface through an enzyme-linked reagent.

Experiment [2] concerns HIV-1IIIB-mediated cell-cell fusion (H9/HIV-1IIIB-infected cells with MT-2 cells). In kind it is cell-based. Particulars: calcein-AM-labeled H9/HIV-1IIIB-infected cells with MT-2 cells (ratio 1:5), 37°C, 2 h; fused cells counted under fluorescence microscope; read-out: IC50 (nM) for inhibition of HIV-1IIIB-mediated cell-cell fusion. An excerpt:
To detect HIV-1 mediated cell-cell fusion, we performed a dye transfer assay as previously described. […] Then under an inverted fluorescence microscope (Zeiss, Germany) with an eyepiece micrometer disc, we calculated the fused and unfused calcein-labeled HIV-1-infected cells. Previously developed methods were applied to calculate the percent inhibition of cell-cell fusion and the IC50 values.

Ends that are not written are not given here.

Take “WMEWDREINNYTSLIHSLIERSQNQQEKNEQELL [C34 E137R]”: the IC50 in experiment [1] was 22.1 ± 1.8 nM; in experiment [2], 5.32 ± 1.29 nM.

For the sequence “WMEWDREINNYTSLIHSLIEASQNQQEKNEQELL [C34 E137A]”, the IC50 is 12.2 ± 1.28 nM in experiment [1] and 4.681 ± 0.029 nM in experiment [2].

The term IC50 denotes the point on the concentration scale where inhibition reaches its midpoint.
